Inconclusive results and toxic doses are left out. No stated cut-off is given here; in the data, active means T/C of 150% or more; inactive means T/C below 125%. Bridge positions count the residues as written; N and C are the ends. Square brackets hold non-standard residues; d marks the D form. Peptide text beside a SMILES is read from it. I, II: the chains in the order shown. * marks the point of attachment. Quinoxaline2carbonyl = O=C(c1cnc2ccccc2n1)*; NMeV = CN[CH](C(=O)O)C(C)C; NMeC = CN[CH](CS)C(=O)O
Tested on: L1210 leukemia ip in BDF1 mice, survival T/C
Assay: NCI In Vivo Anticancer Drug Screen. Data for tumor model L1210 Leukemia (intraperitoneal) in B6D2F1 (BDF1) mice
Details: endpoint: mean survival time, higher = longer survival
How it was run: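 Each compound was tested against a transplantable tumor grown in mice. The endpoint was survival, with treated animals benchmarked against vehicle controls as a simple ratio.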

[1] = dose: 100.0 mg/kg/injection, schedule: Q01DX009 (ip), vehicle: saline with Tween-80
[2] = dose: 200.0 mg/kg/injection, schedule: Q01DX009 (ip), vehicle: saline with Tween-80
[3] = dose: 400.0 mg/kg/injection, schedule: Q01DX009 (ip), vehicle: saline with Tween-80

Measured: T/C

NC(=O)c1[nH]cnc1/N=N/N(CCO)Cc1ccccc1
inactive: dose: 50.0 mg/kg/injection, schedule: Q01DX001 (ip), vehicle: water 98 % of control | dose: 50.0 mg/kg/injection, schedule: Q04DX003 (ip), vehicle: water 105 % of control | dose: 100.0 mg/kg/injection, schedule: Q01DX001 (ip), vehicle: water 96 % of control | [1] 98 % of control | dose: 100.0 mg/kg/injection, schedule: Q04DX003 (ip), vehicle: water 105 % of control | dose: 200.0 mg/kg/injection, schedule: Q01DX001 (ip), vehicle: water 98 % of control | [2] 102 % of control | dose: 200.0 mg/kg/injection, schedule: Q04DX003 (ip), vehicle: water 101 % of control | dose: 400.0 mg/kg/injection, schedule: Q01DX001 (ip), vehicle: water 101 % of control | [3] 95 % of control | dose: 400.0 mg/kg/injection, schedule: Q04DX003 (ip), vehicle: water 97 % of control

CCc1c(CNc2ccc(C(=O)NC(CCC(=O)O)C(=O)O)cc2)ccc2nc(N)nc(N)c12 (configuration not stated)
inactive: dose: 0.12 mg/kg/injection, schedule: Q01DX003 (ip), vehicle: saline 89 % of control | dose: 4.0 mg/kg/injection, schedule: Q01DX009 (ip), vehicle: saline 88 % of control | dose: 2.5 micrograms/kg/injection, schedule: Q01DX009 (ip), vehicle: saline 101 % of control | dose: 5.0 micrograms/kg/injection, schedule: Q01DX009 (ip), vehicle: saline 111 % of control | dose: 10.0 micrograms/kg/injection, schedule: Q01DX009 (ip), vehicle: saline 113 % of control

CCOC(=O)c1cnc(NCC(C)(C)C)[nH]c1=O
inactive: dose: 100.0 mg/kg/injection, schedule: Q01DX001 (ip), vehicle: saline 95 % of control | dose: 200.0 mg/kg/injection, schedule: Q01DX001 (ip), vehicle: saline 91 % of control | dose: 400.0 mg/kg/injection, schedule: Q01DX001 (ip), vehicle: saline 91 % of control

COc1ccc(C(=O)c2cc(OC)c(OC)c(OC)c2)cc1OC
inactive: dose: 50.0 mg/kg/injection, schedule: Q04DX003 (ip), vehicle: saline 98 % of control | dose: 100.0 mg/kg/injection, schedule: Q01DX001 (ip), vehicle: carboxymethylcellulose (CMC) 102 % of control | dose: 100.0 mg/kg/injection, schedule: Q01DX009 (ip), vehicle: saline 108 % of control | dose: 100.0 mg/kg/injection, schedule: Q04DX003 (ip), vehicle: saline 100 % of control | dose: 200.0 mg/kg/injection, schedule: Q01DX001 (ip), vehicle: carboxymethylcellulose (CMC) 103 % of control | dose: 200.0 mg/kg/injection, schedule: Q01DX009 (ip), vehicle: saline 112 % of control | dose: 200.0 mg/kg/injection, schedule: Q04DX003 (ip), vehicle: saline 104 % of control | dose: 400.0 mg/kg/injection, schedule: Q01DX001 (ip), vehicle: carboxymethylcellulose (CMC) 103 % of control | dose: 400.0 mg/kg/injection, schedule: Q01DX009 (ip), vehicle: saline 101 % of control | dose: 400.0 mg/kg/injection, schedule: Q04DX003 (ip), vehicle: saline 96 % of control

CC(=O)CSc1sc(C(C)=O)c(N)c1C#N
inactive: [1] 91 % of control | [2] 91 % of control | [3] 90 % of control

COc1ccc(OC)c(C(=O)CSC(=S)OC(C)C)c1
inactive: dose: 100.0 mg/kg/injection, schedule: Q04DX002 (ip), vehicle: Klucel (hydroxypropylcellulose) (HPC) 96 % of control | dose: 200.0 mg/kg/injection, schedule: Q04DX002 (ip), vehicle: Klucel (hydroxypropylcellulose) (HPC) 92 % of control | dose: 400.0 mg/kg/injection, schedule: Q04DX002 (ip), vehicle: Klucel (hydroxypropylcellulose) (HPC) 96 % of control

CC1NC(=O)C(NC(=O)c2cnc3ccccc3n2)COC(=O)C(C(C)C)N(C)C(=O)C2CSSCC(C(=O)N(C)C(C(C)C)C(=O)OCC(NC(=O)c3cnc4ccccc4n3)C(=O)NC(C)C(=O)N2C)N(C)C1=O (configuration not stated) (I: Quinoxaline2carbonyl-SA[NMeC][NMeV] / II: Quinoxaline2carbonyl-SA[NMeC][NMeV]; ester I:1-II:C, I:C-II:1; disulfide I:3-II:3; configuration not given here)
inactive: dose: 12.5 micrograms/kg/injection, schedule: Q01DX009 (ip), vehicle: other 106 % of control | dose: 25.0 micrograms/kg/injection, schedule: Q01DX009 (ip), vehicle: other 116 % of control | dose: 50.0 micrograms/kg/injection, schedule: Q01DX009 (ip), vehicle: other 119 % of control | dose: 100.0 micrograms/kg/injection, schedule: Q01DX009 (ip), vehicle: other 122 % of control

O=C1c2ccccc2C(=O)N1OC1CCCCO1 (configuration not stated)
inactive: dose: 100.0 mg/kg/injection, schedule: Q01DX009 (ip), vehicle: Klucel (hydroxypropylcellulose) (HPC) 104 % of control | dose: 200.0 mg/kg/injection, schedule: Q01DX009 (ip), vehicle: Klucel (hydroxypropylcellulose) (HPC) 110 % of control | dose: 400.0 mg/kg/injection, schedule: Q01DX009 (ip), vehicle: Klucel (hydroxypropylcellulose) (HPC) 97 % of control

Source: PubChem BioAssay AID248 (DTP/NCI, 2004)
